{"source": "paper PMC4533002", "about": "(2015)", "key": {"[1]": {"system": "St1-CholA/F-St2-AmpA/Rev primA (system A) (DNA, aptamer) ACCTGGGGGAGTA/CCAACCGTGAAAAGATGATGGTGCGGAGGAAGGTCTTAGGTCTATCCCGATGCC/GGCATCGGGATAGACCTAAG", "test": "capillary electrophoresis with LIF (MEKC)", "settings": "50 mM NaCl, 10 mM MgCl2 (incubation); 25 mM NaCl (running buffer); Tris pH 7.5 (incubation), pH 7.8 (running), 0.5 mM Brij 35, 20 °C; 500-2000 μM adenosine"}, "[2]": {"system": "F-St1A/St2 split adenosine aptamer (initial sandwich) (DNA, aptamer) ACCTGGGGGAGTA/TGCGGAGGAAGGT", "test": "fluorescence anisotropy", "settings": "50 mM NaCl, 10 mM MgCl2, 10 mM Tris pH 7.5, 25 °C, 10 nM F-St1A, 400 nM St2"}, "[3]": {"system": "St1-CholB/St2-AmpB/Rev primB (system B) (DNA, aptamer) ATACCTGGGGGAGTATATAAT/CACACAGGAAACAGCGTATGACAATTATAGCGGAGGAAGGTATCCGTAGCCCTATCTGGATTGC/GCAATCCAGATAGGGCTACGG", "test": "capillary electrophoresis isolation with real-time PCR", "settings": "25 mM NaCl, 5 mM MgCl2; 20 mM Tris pH 7.5, 0.5 mM Brij 35, 20 °C; adenosine up to 50 μM"}, "[4]": {"system": "F-St1A/St2-AmpA split adenosine aptamer with primer regions (DNA, aptamer) ACCTGGGGGAGTA/CCAACCGTGAAAAGATGATGGTGCGGAGGAAGGTCTTAGGTCTATCCCGATGCC", "test": "fluorescence anisotropy", "settings": "50 mM NaCl, 10 mM MgCl2, 10 mM Tris pH 7.5, 25 °C, 10 nM F-St1A, 400 nM St2-AmpA"}, "[5]": {"system": "F-St1A/St2-AmpA-Rev primA duplex split adenosine aptamer (DNA, aptamer) ACCTGGGGGAGTA/CCAACCGTGAAAAGATGATGGTGCGGAGGAAGGTCTTAGGTCTATCCCGATGCC/GGCATCGGGATAGACCTAAG", "test": "fluorescence anisotropy", "settings": "50 mM NaCl, 10 mM MgCl2, 10 mM Tris pH 7.5, 25 °C, 10 nM F-St1A, 400 nM St2-AmpA-Rev primA duplex"}}}
{"molecule": "Nc1ncnc2c1ncn2[C@@H]1O[C@H](CO)[C@@H](O)[C@H]1O", "values": [{"measurement": "binding", "setting": "[1]", "result": "yes"}, {"measurement": "apparent Kd", "setting": "[2]", "result": "~ 90 μM"}, {"measurement": "binding", "setting": "[3]", "result": "yes"}, {"measurement": "apparent Kd", "setting": "[4]", "result": "> 500", "unit": "µM"}, {"measurement": "apparent Kd", "setting": "[5]", "result": "~ 90 μM"}]}
